What was measured:
[1] = target: T1, CRTH2 receptor (Homo sapiens, UniProt Q9Y5Y4); test: Radioligand binding assay ([3H]PGD2) on CHO/CRTH2 cell membranes; conditions: [3H]PGD2 binding
T1 construct: expressed in transfected cells; host or cells: Chinese Hamster Ovary (CHO) cells, membranes
T1 sequence (Q9Y5Y4 1-395): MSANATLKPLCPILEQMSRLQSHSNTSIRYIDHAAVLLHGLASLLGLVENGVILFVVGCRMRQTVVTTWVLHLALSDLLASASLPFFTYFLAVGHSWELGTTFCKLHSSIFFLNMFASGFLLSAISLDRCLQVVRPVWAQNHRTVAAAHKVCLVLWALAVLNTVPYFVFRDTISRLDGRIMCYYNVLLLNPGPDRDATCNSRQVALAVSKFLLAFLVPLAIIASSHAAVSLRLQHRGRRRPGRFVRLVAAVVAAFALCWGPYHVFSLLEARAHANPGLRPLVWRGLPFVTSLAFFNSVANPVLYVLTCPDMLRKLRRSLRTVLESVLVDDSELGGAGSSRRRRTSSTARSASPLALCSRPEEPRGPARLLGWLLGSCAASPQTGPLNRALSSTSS
Method: Chinese Hamster Ovary cells were transfected with CRTH2 or DP receptors (CHO/CRTH2 and CHO/DP) and were maintained in culture in a humidified atmosphere at 37° C. (5% CO2) in Minimum Essential Medium (MEM) supplemented with 10% foetal bovine serum, 2 mM glutamine, and 1 mg ml^−1 active G418. The cells were passaged every 2-3 days. For radioligand binding assay, cells were prepared in triple-layer flasks or in 175 cm^2 square flasks (for membrane preparation).
Membranes were prepared either from CHO/CRTH2 and CHO/DP cells, or from platelets (as a source of TP receptors). CHO cells grown to confluency were washed with PBS and detached using a Versene solution (15 ml per flask). When the cells were grown in 175 cm^2 square flask, they were collected by scrapping in PBS. The cell suspensions were centrifuged (1,700 rpm, 10 min, 4° C.) and resuspended in 15 ml of buffer (1× HBSS, supplemented with 10 mM HEPES, pH 7.3). Cell suspensions were then homogenised using an Ultra Turrax at setting 4-6 for 20 s. The homogenate was centrifuged at 1,700 rpm for 10 min and the supernatant was collected and centrifuged at 20,000 rpm for 1 h at 4° C. The resulting pellet was resuspended in buffer and stored at −80° C. in aliquots of 200-500 μl. The protein concentration was determined by the method of Bradford (1976), using bovine serum albumin as standard. The platelets were washed by centrifugation at 600×g for 10 min and resuspended in ice-cold assay buffer (10 mM Tris-HCl, pH 7.4, 5 mM Glucose, 120 mM NaCl, 10 μM indomethacin) and directly centrifuged at 20,000 rpm for 30 min at 4° C. The resulting pellet was treated as described above.
[^3H]PGD2 (160 Ci/mmol) binding experiments were performed on membranes prepared as described above. Assays were performed in a final volume of 100 μl of buffer (1× HBSS/HEPES 10 mM, pH 7.3). Cell membranes (15 μg) were preincubated at room temperature with varying concentration of competing ligand for 15 min. [^3H]PGD2 was then added and the incubation continued for a further one hour at room temperature. The reaction was terminated by the addition of 200 μl ice-cold assay buffer to each well, followed by rapid filtration through Whatman GF/B glass fibre filters using a Unifilter Cell harvester (PerkinElmer Life Sciences) and six washes of 300 μl of ice-cold buffer. The Unifilter plates were dried at room temperature for at least 1 h and the radioactivity retained on the filters was determined on a Beta Trilux counter (PerkinElmer Life Sciences), following addition of 40 μl of Optiphase Hi-Safe 3 (Wallac) liquid scintillation. Non specific binding was defined in the presence of 10 μM unlabelled PGD2. Assays were performed in duplicate.

[2] = test system: PGD2-induced eosinophil shape change; test: Human whole blood eosinophil shape change assay (PGD2-induced); type: cell-based; conditions: 10 nM PGD2, read-out: IC50 for the effect on 10 nM PGD2-induced eosinophil shape change in whole blood
Method: Compounds 1-6 were assayed for their effect on PGD2 induced eosinophil shape change.
Compounds (1 μl, 200× final concentration) were added directly to 200 μl whole blood, mixed well and incubated for 15 min, 37° C., 5% CO2. After this time, cell shape was fixed by addition of 300 μl Cytofix™ buffer (BD Biosciences), 15 min on ice. 10 ml RBC lysis buffer was added to the fixed cells, incubated 5 min, at room temperature and centrifuged, 300×g for 5 min. Supernatant (containing lysed red cells) was removed and the lysis step was repeated. Leukocytes were resuspended in 250 μl RPMI/10% FCS and shape change analysed by FACS. Eosinophils were gated out based on their autofluorescence and 2000 eosinophil events were counted per sample. Data were analysed in triplicate.

Structure (SMILES)	Ki [1] [nM]	IC50 [2] [nM]
Cc1c(Cc2ccc(S(=O)(=O)Cc3ccccc3)cc2)c2cc(F)ccc2n1CC(=O)O [Compound 1, 2-(3-(4-(Benzylsulfonyl)benzyl)-5-fluoro-2-methyl-1H-indol-1-yl)acetic acid]	1	1
Cc1c(Cc2ccc(S(=O)(=O)Cc3ccc(Cl)cc3)cc2)c2cc(F)ccc2n1CC(=O)O [Compound 2, 2-(3-(4-(4-Chlorobenzylsulfonyl)benzyl)-5-fluoro-2-methyl-1H-indol-1-yl)acetic acid]	5	
Cc1c(Cc2cccc(S(=O)(=O)Cc3ccccc3)c2)c2cc(F)ccc2n1CC(=O)O [Compound 3, 2-(3-(3-(Benzylsulfonyl)benzyl)-5-fluoro-2-methyl-1H-indol-1-yl)acetic acid]	3	77
Cc1c(Cc2cccc(S(=O)(=O)Cc3ccc(F)cc3)c2)c2cc(F)ccc2n1CC(=O)O [Compound 4, 2-(5-Fluoro-3-(3-(4-fluorobenzylsulfonyl)benzyl)-2-methyl-1H-indol-1-yl)acetic acid]	1	
Cc1c(Cc2ccccc2S(=O)(=O)Cc2ccccc2)c2cc(F)ccc2n1CC(=O)O [Compound 5, 2-(3-(2-(Benzylsulfonyl)benzyl)-5-fluoro-2-methyl-1H-indol-1-yl)acetic acid]	3	12
Cc1c(Cc2ccc(S(=O)(=O)Cc3ccc(F)cc3)cc2)c2cc(F)ccc2n1CC(=O)O [Compound 6, 2-(3-(4-(4-Fluorobenzylsulfonyl)benzyl)-5-fluoro-2-methyl-1H-indol-1-yl)acetic acid]	3	3
